Results on one compound are retold here after patent publication US11786517B2, “Methods of treatment using a JAK inhibitor compound” (THERAVANCE BIOPHARMA R&D IP, LLC, priority 2017, dated 2023).

Data set [1] relates to IL-13 induced pSTAT6 in lung tissue. The experiment in a line: Murine model of IL-13 induced pSTAT6 induction in lung tissue. The settings on record: mouse lung, 0.5 mg/mL 50 μL oral aspiration. It counts as in vivo, balb/c mice. The method, then: Il-13 is an important cytokine underlying the pathophysiology of asthma (Kudlacz et al. Eur. J. Pharmacol, 2008, 582, 154-161). IL-13 binds to cell surface receptors activating members of the Janus family of kinases (JAK) which then phosphorylate STAT6 and subsequently activates further transcription pathways. In the described model, a dose of IL-13 was delivered locally into the lungs of mice to induce the phosphorylation of STAT6 (pSTAT6) which is then measured as the endpoint.
Adult balb/c mice from Harlan were used in the assay. On the day of study, animals were lightly anesthetized with isoflurane and administered either vehicle or test compound (0.5 mg/mL, 50 μL total volume over several breaths) via oral aspiration. Animals were placed in lateral recumbency post dose and monitored for full recovery from anesthesia before being returned to their home cage. Four hours later, animals were once again briefly anesthetized and challenged with either vehicle or IL-13 (0.03 μg total dose delivered, 50 μL total volume) via oral aspiration before being monitored for recovery from anesthesia and returned to their home cage. […] using an anti-pSTAT6 ELISA (rabbit mAb capture/coating antibody; mouse mAb detection/report antibody: anti-pSTAT6-pY641; secondary antibody: anti-mouse IgG-HRP) and analyzed for total drug concentration as described above in Assay 11. […]

Data set [2] can be described thus: Pharmacokinetics in plasma and lung in mouse. It counts as in vivo, BALB/c mice. The settings on record: oral aspiration, 0.2 mg/mL, 50 uL. The procedure:
Plasma and lung levels of the test compound and the ratio thereof was determined in the following manner. BALB/c mice from Charles River Laboratories were used in the assay. Test compounds were individually formulated in 20% propylene glycol in pH 4 citrate buffer at a concentration of 0.2 mg/mL and 50 uL of the dosing solution was introduced into the trachea of a mouse by oral aspiration. At various time points (typically 0.167, 2, 6, 24 hr) post dosing, blood samples were removed via cardiac puncture and intact lungs were excised from the mice. Blood samples were centrifuged (Eppendorf centrifuge, 5804R) for 4 minutes at approximately 12,000 rpm at 4° C. to collect plasma. Lungs were padded dry, weighed, and homogenized at a dilution of 1:3 in sterile water. Plasma and lung levels of test compound were determined by LC-MS analysis against analytical standards constructed into a standard curve in the test matrix. A lung to plasma ratio was determined as the ratio of the lung AUC in μg hr/g to the plasma AUC in μg hr/mL, where AUC is conventionally defined as the area under the curve of test compound concentration vs. time.

Data set [3] can be described thus: Ocular pharmacokinetics in rabbit eyes. The settings on record: intravitreal injection, listed as compound of the invention. Type of data set: in vivo, New Zealand white rabbits. The method, then:
The objective of this assay was to determine the pharmacokinetics of the test compound in rabbit ocular tissues.
The compound of the invention, 5-ethyl-2-fluoro-4-(3-(5-(1-methylpiperidin-4-yl)-4,5,6,7-tetrahydro-1H-imidazo[4,5-c]pyridin-2-yl)-1H-indazol-6-yl)phenol (1) was dissolved in either 10% 2-hydroxypropyl-β-cyclodextrin to attain a target concentration of 4 mg/mL or in purified water to attain a target concentration of 1 mg/mL. Bilateral intravitreal injection (50 μL/eye) of the solution of test compound was administered to New Zealand white rabbits in two dose groups, 200 μg/eye and 50 μg/eye, respectively, for the cyclodextrin and water vehicle formulations, respectively. The test compound concentration was measured in ocular tissues: vitreous, aqueous, retina/choroid and iris-ciliary body at pre-determined time points post injection (30 min, 4 h, 1 d, 3 d, 7 d, 14 d). Two rabbits (four eyes) were dosed for each time point.
A suspension formulation was prepared by combining crystalline compound 1 of Example 1 with 0.5% hydroxypropyl methylcellulose (HPMC E5)+0.02% Tween 80 to attain a target concentration of 10 mg/mL. Bilateral intravitreal injection (50 μL/eye) of the suspension of test compound was administered to New Zealand white rabbits (500 μg/eye). The test compound concentration was measured in ocular tissues as in the […] at 30 min, 2 wks, 4 wks, 6 wks, and 8 wks post injection. […] The behavior is consistent with the solubility of compound 1 in the vehicle and the ocular pharmacokinetic behavior in the solution formulation. The drug concentration in plasma was measured and found to be at least 3 orders of magnitude lower than the concentration in vitreous tissue.

Data set [4] deals with IFNγ induced CXCL10 secretion. Description: Inhibition of IFNγ induced CXCL10 in human 3D airway cultures. The settings on record: at μM (so in the source), 8 days, ±STDV. Type of data set: cell-based. The method, then:
EpiAirway tissue cultures were obtained from Mattek (AIR-100). Cultures were derived from asthmatic donors. In a cell culture insert, human derived tracheal/bronchial epithelial cells were grown and differentiated on a porous membrane support, allowing an air-liquid interface with warmed culture medium below the cells and a gaseous test atmosphere above. Tissues were cultured in maintenance media (Mattek, AIR-100-MM) in a 37° C., 5% CO2 humidified incubator. Four donors were tested. On Day 0, tissue cultures were treated with test compounds at 10 μM, 1 μM and/or 0.1 μM. Compounds were diluted in dimethyl sulfoxide (DMSO, Sigma) to a final concentration of 0.1%. DMSO at 0.1% was used as a vehicle control. Test compounds were incubated with cultures for 1 hour at 37° C., 5% CO2, followed by the addition of pre-warmed media containing IFNγ (R&D Systems) or IL-27 (R&D Systems) at a final concentration at 100 ng/ml. Tissue cultures were maintained for 8 days. Media was replaced every 2 days with fresh media containing compounds and IFNγ or IL-27. On Day 8, tissue cultures and supernatants were collected for analysis. […] Data is expressed as % Inhibition+/−standard deviation (±STDV). Percent inhibition was determined by compound inhibitory potency against IFNγ or IL-27 induced CXCL10 or CXCL9 secretion compared to vehicle treated cells. […]

`CCc1cc(O)c(F)cc1-c1ccc2c(-c3nc4c([nH]3)CCN(C3CCN(C)CC3)C4)n[nH]c2c1` [compound 1, 5-ethyl-2-fluoro-4-(3-(5-(1-methylpiperidin-4-yl)-4,5,6,7-tetrahydro-1H-imidazo[4,5-c]pyridin-2-yl)-1H-indazol-6-yl)phenol]: the “inhibition of STAT6 phosphorylation” value in data set [1] is given as “about 60%”. Besides, the “exposure in lung relative to exposure in plasma (lung AUC to plasma AUC ratio)” value in data set [2] is “about 55 times”. In addition, the “drug concentration in plasma lower than concentration in vitreous tissue” value in data set [3] is on record as “at least three orders of magnitude lower”. Besides, the “inhibition of IFNγ induced CXCL10 secretion” value in data set [4] is 71%±19.
